Target: T1, SOS1 protein (Homo sapiens, UniProt Q07889)
T1 sequence (Q07889 1-1333): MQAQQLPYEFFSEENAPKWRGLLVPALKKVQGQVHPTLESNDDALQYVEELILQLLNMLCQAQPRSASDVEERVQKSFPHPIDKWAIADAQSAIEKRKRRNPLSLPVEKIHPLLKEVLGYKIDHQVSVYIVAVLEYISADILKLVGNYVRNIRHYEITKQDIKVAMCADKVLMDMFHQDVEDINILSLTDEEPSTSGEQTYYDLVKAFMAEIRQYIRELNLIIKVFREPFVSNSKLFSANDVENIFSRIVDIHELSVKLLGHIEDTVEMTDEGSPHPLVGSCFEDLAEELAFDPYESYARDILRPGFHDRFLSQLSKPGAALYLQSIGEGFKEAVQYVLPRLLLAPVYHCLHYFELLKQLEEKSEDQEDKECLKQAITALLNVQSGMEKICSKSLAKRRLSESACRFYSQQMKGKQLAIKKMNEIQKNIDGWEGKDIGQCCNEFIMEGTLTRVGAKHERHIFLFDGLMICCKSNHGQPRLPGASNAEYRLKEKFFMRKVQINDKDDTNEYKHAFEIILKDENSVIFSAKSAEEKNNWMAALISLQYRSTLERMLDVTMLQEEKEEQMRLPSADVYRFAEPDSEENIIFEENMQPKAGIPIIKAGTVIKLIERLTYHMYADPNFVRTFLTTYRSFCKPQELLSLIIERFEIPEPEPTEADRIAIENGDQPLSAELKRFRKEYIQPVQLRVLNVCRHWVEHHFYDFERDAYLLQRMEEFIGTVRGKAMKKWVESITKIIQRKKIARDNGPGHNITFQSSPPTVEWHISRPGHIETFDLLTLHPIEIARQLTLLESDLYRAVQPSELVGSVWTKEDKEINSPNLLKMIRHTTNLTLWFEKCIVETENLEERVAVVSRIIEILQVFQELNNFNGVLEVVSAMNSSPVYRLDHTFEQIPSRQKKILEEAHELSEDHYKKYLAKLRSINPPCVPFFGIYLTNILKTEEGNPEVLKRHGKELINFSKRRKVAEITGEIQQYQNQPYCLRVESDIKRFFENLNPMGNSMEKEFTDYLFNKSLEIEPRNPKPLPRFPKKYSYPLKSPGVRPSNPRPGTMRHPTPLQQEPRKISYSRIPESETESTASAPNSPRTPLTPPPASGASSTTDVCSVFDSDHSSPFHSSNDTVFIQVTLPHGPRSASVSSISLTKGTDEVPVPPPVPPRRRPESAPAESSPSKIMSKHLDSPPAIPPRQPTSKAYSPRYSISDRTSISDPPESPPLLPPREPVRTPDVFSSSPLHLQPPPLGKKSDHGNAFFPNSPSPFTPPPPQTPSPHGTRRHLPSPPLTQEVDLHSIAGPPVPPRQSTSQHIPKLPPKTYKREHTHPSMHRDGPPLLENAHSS
Assay: SOS1 degradation assay (Western blot) in DLD-1 cells
Type: cell-based
Set-up: host or cells: NCI-H358, A-427, SW-620, DLD-1 (human cancer cell lines)
Details: DLD-1 (KRAS G13D), 24 h
Method: Test Example 2: SOS1 Degradation Assay
The degradation of SOS1 by the compounds was investigated on KRAS G12C mutant human non-small cell lung cancer cells NCI-H358 (ATCC or Stem Cell Bank, Chinese Academy of Sciences), KRAS G12D mutant human lung cancer cells A-427 (ATCC), KRAS G12V mutant human colorectal adenocarcinoma cells SW-620 (ATCC), and KRAS G13D mutant human colorectal adenocarcinoma epithelial cells DLD-1 (ATCC). The specific procedures were as follows:
0.95 mL of cells were seeded into each well of a 24-well cell culture plate to achieve a cell density of 5×10^5 cells/well; the cell plate was incubated in an incubator at 37° C. with 5% CO2 overnight. Then 50 μL of the compound solution after dilution was added to each of the wells with the corresponding cells, so that the final concentration of the compound was in a range of 0.03-3000 nM. The final concentration of DMSO was 0.25%.
After dosing, the cell plate was incubated in an incubator at 37° C. with 5% CO2 for 24 h. The cell culture medium in the 24-well plate was removed, and the plate was washed twice with 1×PBS. 180 μL of RIPA (strong) lysis buffer (Beyotime, P0013B) supplemented with 1 mM phenylmethylsulfonyl fluoride, a protease inhibitor mixture (Beyotime, P1008), and a protease phosphatase inhibitor mixture (Beyotime, P1045) was added to lyse adherent NCI-H358 cells at the bottom of the cell culture plate. After the plate was left to stand on ice for 30 min, the protein lysate in each well was transferred to a 1.5 mL centrifuge tube and centrifuged at 15000 g for 20 min at 4° C. […] The concentration of total protein in the cell lysate supernatant was determined using the BCA Protein Quantification Kit (Tiangen, PA115-02). […]
The concentration of total protein in the cell lysate was determined by BCA. […] After the blocking, the PVDF membrane was incubated with an SOS1 primary antibody (Abcam, ab140621) at 4° C. overnight, washed with a TBST buffer (2.4 g of Tris, 8.8 g of NaCl, 1.5 mL of Tween 20, with pH adjusted to 7.4, with the volume brought to 1 L) for 30 min (10 min/time), incubated with a secondary antibody (Abcam, ab205718) at room temperature for 2 h, washed with a TBST buffer for 30 min (10 min/time), and finally incubated with Clarity Western ECL Substrate (BIO-RAD, 170-5061) for 5 min for luminescence and color development, and a chemiluminescence imaging system (Clinx, ChemiScope 6200 Touch) was used for color development and protein mapping. […] The gray correction value for each sample was calculated by the formula: gray correction value=(gray value of target protein/gray value of corresponding internal reference)×103. Then the degradation rate was calculated by comparing the gray correction value with the gray correction value of the control group. […]

DC50 [nM] | Dmax [%] | Structure (SMILES)
≤ 50 | 80 to 100 | COc1cc2nc(C)nc(N[C@H](C)c3cc(-c4c(Cl)cccc4CN(C)C)cs3)c2cc1[C@H]1CC[C@H](C(=O)N2CCC(CCOCC3CCN(C(=O)c4ccc(Cl)c(N5CCC(=O)NC5=O)c4)CC3)CC2)CC1 [Example 5, 1-(2-chloro-5-(4-((2-(1-((1R,4R)-4-(4-(((R)-1-(4-(2-chloro-6-((dimethylamino)methyl)phenyl)thien-2-yl)ethyl)amino)-7-methoxy-2-methylquinazolin-6-yl)cyclohexane-1-carbonyl)piperidin-4-yl)ethoxy)methyl)piperidine-1-carbonyl)phenyl)dihydropyrimidine-2,4(1H,3H)-dione]
≤ 50 | 80 to 100 | COc1cc2nc(C)nc(N[C@H](C)c3cc(-c4c(Cl)cccc4CN(C)C)cs3)c2cc1[C@H]1CC[C@H](C(=O)N2CCN(CC3CCC4(CC3)CCN(C(=O)c3ccc(Cl)c(N5CCC(=O)NC5=O)c3)CC4)CC2)CC1 [Example 1, 1-(2-chloro-5-(9-((4-((1R,4R)-4-(4-(((R)-1-(4-(2-chloro-6-((dimethylamino)methyl)phenyl)thien-2-yl)ethyl)amino)-7-methoxy-2-methylquinazolin-6-yl)cyclohexane-1-carbonyl)piperazin-1-yl)methyl)-3-azaspiro[5.5]undecane-3-carbonyl)phenyl)dihydropyrimidine-2,4(1H,3H)-dione]
